Data set [1] addresses T1, VDR (Homo sapiens, UniProt P11473).
T1 construct: the receptor expression vector pGal4-VDR-LBD (10 ng); expressed in transfected cells; host or cells: Caco-2 cells
T1 sequence (P11473 127-423 limits assumed): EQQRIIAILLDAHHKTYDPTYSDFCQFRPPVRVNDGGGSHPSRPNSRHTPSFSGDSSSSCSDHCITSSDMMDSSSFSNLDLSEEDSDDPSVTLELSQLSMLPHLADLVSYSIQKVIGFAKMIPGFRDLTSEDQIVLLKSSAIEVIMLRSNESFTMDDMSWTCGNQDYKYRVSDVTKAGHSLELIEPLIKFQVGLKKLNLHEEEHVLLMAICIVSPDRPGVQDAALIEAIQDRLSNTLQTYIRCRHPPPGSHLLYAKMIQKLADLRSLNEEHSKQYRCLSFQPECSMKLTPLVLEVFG
In words: Caco-2 cell co-transfection assay (VDR CTF). Type of data set: cell-based. The conditions noted are these: Caco-2 cells, pGal4-VDR-LBD co-transfection, luciferase reporter. The protocol: 2. The Caco-2 Cell Co-Transfection Assay:
The Caco-2 cell assay is an indicator for the undesirable condition of hypercalcemia. This co-transfection assay is a surrogate assay for in vivo calcemic activity of VDR ligands. […] Preferred assay results are greater than 1000 nM.
(2) Materials and Method for The Caco-2 Cell Assay:
Caco-2 cells, grown in phenol red free, DMEM (Invitrogen, Carlsbad, Calif.) containing 10% charcoal-stripped FCS (Hyclone, Logan, Utah), were transfected with Fugene 6 reagent (Roche Diagnostics, Indianapolis, Ind.). Cells (5000/well) were plated 18 h before transfection in a 96 well plate. The Cells were transfected with Gal4-responsive reporter pFRLuc (150 ng, Stratagene, La Jolla Calif.) and the receptor expression vector pGal4-VDR-LBD (10 ng), along with Fugene 6 reagent (0.2 μl/well). The DNA-Fugene complex was formed by incubating the mixture for 30 min at room temperature. The cells were transfected in triplicate for 5 h, and treated with various concentrations of VDR ligands (form 0.01 nM to 10,000 nM concentration range) 18 h post-transfection. The luciferase activity was quantified using Steady-Glo reagent kit (Promega, Madison, Wis.) as per manufacturer's specifications.
Background: In a reporter assay the amount or activity of a reporter protein is the signal.

A short description of data set [2]: Mouse hypercalcemia assay. The conditions noted are these: oral gavage for 6 days, serum ionized calcium 6 hours after last dosing.
Method: The Mouse Hypercalcemia Assay is a six day hypercalcemia test for toxicity and selectivity. Acceptable test results are levels greater than 300 μg/kg/day. Preferred assay results are levels greater than 1000 μg/day.
(4) Materials and Method for the Mouse Hypercalcemia Assay:
Weanling, virus—antibody-free, five to six weeks old female DBF mice (Harlan, Indianapolis, Ind.) are used for all the studies. Animals are allowed to acclimate to local vivarium conditions for 2 days. […] The animals then are divided into groups with 4-5 mice per group. Different doses of test compounds prepared in 10% Ethanol and 90% sesame oil are administered to mice orally via gavage for 6 days. 1α-25(OH)2D3 0.5 μg/kg/d was also given to one group of mice as the positive control. […] Raw data of group differences is assessed by analysis of variance (ANOVA) using Fisher's protected least significant difference (PLSD) where the significance level was P<0.05.
In data set [3] the test system is rat osteocalcin promoter. In words: OCN (osteocalcin) promoter assay. The class given is cell-based. To be noted: RG-15 (ROS 17/2.8) cells, 48 hr treatment, luciferase reporter. The protocol:
3. The OCN (osteocalcin) Promoter Assay
The OCN Promoter Assay is an indicator and marker for osteoporosis. […] Preferred assay results are less than 50 nM.
(3) Materials and Method for the OCN Promoter Assay:
The activation of osteocalcin by VDR ligands was evaluated in a rat osteoblast-like cell line RG-15 (ROS 17/2.8) stably expressing rat osteocalcin promoter fused with luciferase reporter gene. […] Confluent RG-15 cells maintained in DMEM/F-12 medium (3:1) containing 5% FBS, 300 μg/ml G418 and at 37° C. under 5% CO2/95% air atmosphere were trypsinized (0.25% trypsin) and plated into white opaque 96-well cell culture plates (25000 cells/well). After 24 hr, cells (in DMEM/F-12 medium+2% FBS) were treated with various concentrations of compounds, dissolved in DMSO. The final DMSO concentration remained at 0.01% (v/v). After 48 hr treatment, the medium was removed, cells were lysed with 50 μl of lysis buffer (From Luciferase reporter assay system, Roche Diagnostics, Indianapolis, Ind.) and assayed for luciferase activity using the Luciferase Reporter Gene Assay kit from Boehringer Mannheim as per manufacturer's specifications.

Data set [4] deals with T2, RXR-VDR heterodimer (Homo sapiens, UniProt P11473).
T2 construct: Add the Gal4-RXR-DEF and VP16-VDR-LBD; expressed in transfected cells; host or cells: SaOS-2 cells
T2 sequence (P11473 127-423 limits assumed): T1 sequence (P11473 127-423 limits assumed)
T2 sequence (P19793 201-462 partner limits assumed): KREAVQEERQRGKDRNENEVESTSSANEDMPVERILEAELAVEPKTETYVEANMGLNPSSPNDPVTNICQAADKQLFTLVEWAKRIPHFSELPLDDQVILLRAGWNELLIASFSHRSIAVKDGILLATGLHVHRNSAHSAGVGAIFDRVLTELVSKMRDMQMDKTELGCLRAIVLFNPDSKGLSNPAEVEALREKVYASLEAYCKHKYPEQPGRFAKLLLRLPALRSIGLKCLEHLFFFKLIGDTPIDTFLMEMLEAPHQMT
As to the kind of experiment: RXR-VDR heterodimerization assay (SaOS-2 cells). To be noted: Gal4-RXR-DEF / VP16-VDR-LBD, luciferase reporter. Type of data set: cell-based. The source says: 1. The RXR-VDR heterodimer Assay:
This assay provides the VDR activity of a test compound.
(1) Materials and Method for RXR-VDR Heterodimerization Assay:
Luciferase Assay Reagent: • Use Steady-Glo Luciferase Reagent from Promega (Cat # E2550) Consists of:
Add plain DMEM media to tubes for mixing the DNA
Add the Reporter gene pFR-LUC
Add the Gal4-RXR-DEF and VP16-VDR-LBD
Make a stock solution of the compounds in DMSO
Further dilute in D-MEM (Low Glucose—With out Phenol Red)
Read the plates after drug treatment
Add Steady-Glo Luciferase Reagent mixture/wells
Count each well using a Luminescence counter, Top Count NXT by Packard

Data set [5] concerns KERtr cells. In words: Keratinocyte proliferation assay. The conditions noted are these: Homo sapiens, 72 hr, BrdU incorporation, read-out: Kera. Prolif. IC50. The class given is cell-based. Here is the method: 5. The Keratinocte Proliferation Assay
This Assay is indicative for the treatment of psoriasis.
(5) The Keratinocyte Proliferation Assay:
KERtr cells (Human skin keratinocyte transformed with a retrovirus vector, obtained from ATCC) were plated in 96-well flat-bottomed plates (3000 cells/well) in 100 µl keratinocyte serum free medium supplemented with bovine pituitary extract in the absence of EGF (Life Technologies, Rockville, Md.) and incubated at 37° C. for two days. The cells were treated with various concentrations of VDR ligands (ten-fold serial dilution from 10,000 nM to 0.1 nM in triplicate), dissolved in 100 μl keratinocyte serum free medium supplemented with bovine pituitary extract in the absence of EGF and incubated at 37° C. for 72 hr. BrdU (5-bromo-2′-deoxyuridine) incorporation was analyzed as a measure of DNA replication (Cell proliferation ELISA kit, Roche Diagnostics, Indianapolis, Ind.) and absorbance was measured at 405 nm. Potency values (IC50) values were determined as the concentration (nM) of compound that elicited a half-maximal response.

The values that follow come from patent US7750184B2, “Vitamin D receptor modulators” (Eli Lilly and Company, priority 2003, dated 2010).

Consider `CCC(CC)(c1ccc(OCC(=O)C(C)(C)C)c(C)c1)c1cc(C)c(OS(C)(=O)=O)c(C)c1` [Ex. 40, 3′-[4-(2-oxo-3,3-dimethylbutoxy)-3-methylphenyl]-3′-[3,5-dimethyl-4-methylsulfonyloxy-phenyl]pentane], for which the EC50 in data set [1] amounted to 375 nM; in data set [3] (Rattus norvegicus, 48 h), 1.91 nM. Besides, the “Mouse Hypercal” value in data set [2] is 300 µg/kg/day.

Regarding `CCC(CC)(c1ccc(OC[C@@](C)(O)C(C)(C)C)c(C)c1)c1ccc(OS(=O)(=O)C(F)(F)F)c(C)c1` (stereo in doubt) [Ex. 35, trifluoro-methanesulfonic acid 4-{1-ethyl-1-[4-(2-hydroxy-2,3,3-trimethyl-butoxy)-3-methyl-phenyl]-propyl}-2-methyl-phenyl ester], the 50% effective concentration (EC50) in data set [1] was 616 nM; in data set [4] it was 138 nM; in data set [3] (Rattus norvegicus, 48 h), 20.1 nM.

With `Cc1cc(C2(c3ccc(OCC(=O)C(C)(C)C)c(C)c3)CCCCC2)ccc1OCC(=O)C(C)(C)C` [CC, 1-(4-{1-[4-(3,3-Dimethyl-2-oxo-butoxy)-3-methyl-phenyl]-cyclohexyl}-2-methyl-phenoxy)-3,3-dimethyl-butan-2-one, reference compound], the EC50 in data set [1] is 710000 nM; in data set [3] (Rattus norvegicus, 48 h), 10000 nM. Besides, in data set [2], the “Mouse Hypercal” value was over 30000 µg/kg/day.

`CCC(CC)(c1ccc(NS(C)(=O)=O)c(C)c1)c1ccc(OCC(O)C(C)(C)C)c(C)c1` (single isomer, unassigned) [Ex. 14, 3′-[4-(2-Hydroxy-3,3-dimethylbutoxy)-3-methylphenyl]-3′-[4-(methanesulfonylamino)-3-methylphenyl]pentane]: the half-maximal effective concentration (EC50) amounted to 89 nM in data set [1] and 9.77 nM in data set [3] (Rattus norvegicus, 48 h). For the same compound, in data set [2], the “Mouse Hypercal” value is under 300 µg/kg/day. In addition, the IC50 in data set [5] amounted to 2 nM.

For `CCc1cc(C(CC)(CC)c2ccc(OS(C)(=O)=O)cc2)ccc1OCC(=O)C(C)(C)C` [Ex. 39, 3′-[4-(2-oxo-3,3-dimethylbutoxy)-3-ethylphenyl]-3′-[4-methylsulfonyloxy-phenyl]pentane], the EC50 was determined as 18 nM in data set [1] and 1.79 nM in data set [3] (Rattus norvegicus, 48 h). In addition, the “Mouse Hypercal” value in data set [2] was under 100 µg/kg/day.

In the case of `CCC(CC)(c1ccc(OS(=O)(=O)C(F)(F)F)cc1)c1ccc(OCC(=O)C(C)(C)C)c(Cl)c1` [Ex 46, 52, 3′-[3-chloro-4-(2-Oxo-3.3-dimethylbutoxy)]-3′-(4-trifluoromethylsulfonyloxyphenyl)pentane], the IC50 in data set [5] amounted to 90 nM. The EC50 in data set [3] (Rattus norvegicus, 48 h) worked out at 217 nM.

For the compound `CCC(CC)(c1ccc(OCC(=O)C(C)(C)C)c(C)c1)c1ccc(OS(=O)(=O)C(F)(F)F)c(C)c1` [Ex. 5, 3′-[4-(2-oxo-3,3-dimethylbutoxy)-3-methylphenyl]-3′-[4-(trifluoromethanesulfonyloxy)-3-methylphenyl]pentane], the concentration giving a half-maximal response (EC50) was determined as 1590 nM in data set [1] and 20.8 nM in data set [3] (Rattus norvegicus, 48 h). In data set [2], the “Mouse Hypercal” value is over 500 µg/kg/day.

As to `CCC(CC)(c1ccc(OCC(=O)C(C)(C)C)c(C)c1)c1ccc(OS(=O)(=O)CC(F)(F)F)c(C)c1` [Ex. 7], the concentration for a half-maximal effect (EC50) was 331 nM in data set [1] and 84 nM in data set [3] (Rattus norvegicus, 48 h). Moreover, the “Mouse Hypercal” value in data set [2] is 100 µg/kg/day.

As for `CCC(CC)(c1ccc(OC[C@H](O)C(C)(C)C)c(C)c1)c1ccc(OS(C)(=O)=O)c(C)c1` (single isomer, unassigned) [Ex. 2, 3′-[4-(2-hydroxy-3,3-dimethylbutoxy)-3-methylphenyl]-3′-[4-(methanesulfonyloxy)-3-methylphenyl]pentane], the results for the EC50 in data set [1] and in data set [3] were 46.5 nM and 5.1 nM, respectively. For the same compound, the “Mouse Hypercal” value in data set [2] was 50 µg/kg/day.

On to `CCC(CC)(c1ccc(OS(=O)(=O)C(F)(F)F)c(C)c1)c1ccc(OCC(=O)C(C)(C)C)c(Cl)c1` [Ex. 48, 3′-[3-chloro-4-(2-oxo-3.3-dimethylbutoxy)phenyl]-3′-[3-methyl-4-(trifluoromethylsulfonyloxy)phenyl]pentane], for which, in data set [2], the “Mouse Hypercal” value was under 1000 µg/kg/day. Besides, the IC50 in data set [5] came out at 13 nM. Also, the EC50 in data set [3] (Rattus norvegicus, 48 h) was determined as 54.1 nM.

Take `CCC(CC)(c1ccc(NS(C)(=O)=O)c(C)c1)c1ccc(OCC(=O)C(C)(C)C)c(C)c1` [Ex. 17, N-(4-{1-[4-(3,3-Dimethyl-2-oxo-butoxy)-3-methyl-phenyl]-1-ethyl-propyl}-2-methyl-phenyl)-methanesulfonamide]: the IC50 in data set [5] turned out to be 2 nM. Besides, in data set [3] (Rattus norvegicus, 48 h), the EC50 was 3.75 nM.

For `CCC(CC)(c1ccc(OS(C)(=O)=O)cc1)c1ccc(OCC(O)C(C)(C)C)c(Cl)c1` (racemic) [Ex. 43, 51, 3′-[3-chloro-4-(2-hydroxy-3,3-dimethylbutoxy)phenyl]-3′-(4-methylsulfonyloxyphenyl)pentane], the half-inhibitory concentration (IC50) in data set [5] amounted to 4 nM. Also, the EC50 in data set [3] (Rattus norvegicus, 48 h) amounted to 7.53 nM.

Take `CCC(CC)(c1ccc(OCC(O)C(C)(C)C)c(C)c1)c1ccc(OS(=O)(=O)C(F)(F)F)c(C)c1` (stereo not drawn) [Ex. 6, 3′-[4-(2-hydroxy-3,3-dimethylbutoxy)-3-methylphenyl]-3′-[4-(trifluoromethanesulfonyloxy)-3-methylphenyl]pentane]: the EC50 in data set [1] amounted to 1140 nM; in data set [3] (Rattus norvegicus, 48 h), 11.3 nM. For the same compound, in data set [2], the “Mouse Hypercal” value is 300 µg/kg/day.

`CCC(CC)(c1ccc(OCC(O)C(C)(C)C)c(C)c1)c1ccc(N(C)S(C)(=O)=O)c(C)c1` (single isomer, unassigned) [Ex. 21, N-(4-{1-ethyl-1-[4-(2-hydroxy-3,3-dimethyl-butoxy)-3-methyl-phenyl]-propyl}-2-methyl-phenyl)-N-methyl-methanesulfonamide]: the IC50 in data set [5] is 67 nM. The EC50 in data set [3] was 124 nM.

`CCC(CC)(c1ccc(OC[C@H](O)C(C)(C)C)c(C)c1)c1ccc(OS(C)(=O)=O)c(C)c1` (single isomer, unassigned) [Ex. 3, 3′-[4-(2-hydroxy-3,3-dimethylbutoxy)-3-methylphenyl]-3′-[4-(methanesulfonyloxy)-3-methylphenyl]pentane]: the EC50 in data set [1] amounted to 133 nM; in data set [3] it was 16.3 nM. For the same compound, the “Mouse Hypercal” value in data set [2] is 50 µg/kg/day.

The term EC50 denotes the concentration that produces a half-maximal response. The IC50 is the point on the concentration scale where inhibition reaches its midpoint.
